Laboratory results as given in patent publication US8124610B2, “Sodium channel inhibitors” (Icagen Inc., priority 2007, dated 2012).

Biological target: T1, hSCN9A (Homo sapiens, UniProt Q15858)
T1 construct: expressed in transfected cells
Experiment: Whole-cell patch-clamp electrophysiology (conventional or PatchXpress), HEK cells expressing hSCN9A, estimated IC-50
Type: cell-based
Conditions: estimated IC-50, HEK cells expressing hSCN9A; class symbols or bounds; read-out: SCN9A EIC-50
Protocol: Human Embryonic Kidney (HEK) cells were transfected with hSCN3A or hSCN9A constructs using lipofectamine reagent (Invitrogen), using standard techniques. Cells stably expressing the hSCN3A or hSCN9A constructs were identified by their resistance to G-418 (400 μg/ml). Clones were screened for expression using the whole-cell voltage-clamp technique. HEK cells stably transfected with hSCN3A or hSCN9A were maintained in DMEM medium supplemented with 10% heat-inactivated fetal bovine serum and 400 μg/ml G418 sulfate in an incubator at 37° C. with a humidified atmosphere of 10% CO2. For HTS, cells were harvested from flasks by trypsinization and replated in an appropriate multi-well plate (typically 96 or 384 wells/plate) such that confluence would be achieved within 24 hours of plating. For electrophysiological studies, cells were removed from the culture flask by brief trypsinization and replated at low density onto glass cover slips. Cells were typically used for electrophysiological experiments within 24 to 72 h after plating. Cover slips containing HEK cells expressing hSCN3A or hSCN9A were placed in a bath on the stage of an inverted microscope and perfused (approximately 1 ml/min) with extracellular solution of the following composition: 138 mM NaCl, 2 mM CaCl2, 5.4 mM KCl, 1 mM MgCl2, 10 mM glucose, and 10 mM HEPES, pH 7.4, with NaOH. […] All recordings were made at room temperature (22-24° C.) using AXOPATCH 200B amplifiers and PCLAMP software (Axon Instruments, Burlingame, Calif.) or PatchXpress 7000 hardware and associated software (Axon Instruments, Burlingame, Calif.). hSCN3A or hSCN9A currents in HEK cells were measured using the whole-cell configuration of the patch-clamp technique (Hamill et al., 1981). […] As a result, voltage errors were negligible and no correction was applied. Current records were acquired at 20 to 50 KHz and filtered at 5 to 10 KHz. HEK cells stably transfected with hSCN3A or hSCN9A were viewed under Hoffman contrast optics and placed in front of an array of flow pipes emitting either control or compound-containing extracellular solutions. All compounds were dissolved in dimethyl sulfoxide to make 10 mM stock solutions, which were then diluted into extracellular solution to attain the final concentrations desired. […] The voltage-dependence of inactivation was determined by applying a series of depolarizing prepulses (8 sec long in 10 mV increments) from a negative holding potential. The voltage was then immediately stepped to 0 mV to assess the magnitude of the sodium current. Currents elicited at 0 mV were plotted as a function of prepulse potential to allow estimation of the voltage midpoint of inactivation (V1/2). Cells were then voltage clamped at the empirically determined V1/2. Compounds were tested for their ability to inhibit hSCN3A or hSCN9A sodium channels by activating the channel with a 20 msec voltage step to 0 mV following an 8 second conditioning prepulse to the empirically determined V1-2 (Table B). Compound effect (% inhibition) was determined by difference in current amplitude before and after application of test compounds. […] In some cases electrophysiological assays were conducted with PatchXpress 7000 hardware and associated software (Molecular Devices Corp) (Table B). All assay buffers and solutions were identical to those used in conventional whole-cell voltage clamp experiments described above. hSCN3A or hSCN9A containing cells were grown as above to 50%-80% confluency and harvested by trypsinization. Trypsinized cells were washed and resuspended in extracellular buffer at a concentration of 1×10^6 cells/ml. The onboard liquid handling facility of the PatchXpress was used for dispensing cells and application of test compounds. Determination of the voltage midpoint of inactivation was as described for conventional whole-cell recordings. Cells were then voltage-clamped to the empirically determined V1/2 and current was activated by a 20 msec voltage step to 0 mV.

T1 sequence (Q15858 whole entry): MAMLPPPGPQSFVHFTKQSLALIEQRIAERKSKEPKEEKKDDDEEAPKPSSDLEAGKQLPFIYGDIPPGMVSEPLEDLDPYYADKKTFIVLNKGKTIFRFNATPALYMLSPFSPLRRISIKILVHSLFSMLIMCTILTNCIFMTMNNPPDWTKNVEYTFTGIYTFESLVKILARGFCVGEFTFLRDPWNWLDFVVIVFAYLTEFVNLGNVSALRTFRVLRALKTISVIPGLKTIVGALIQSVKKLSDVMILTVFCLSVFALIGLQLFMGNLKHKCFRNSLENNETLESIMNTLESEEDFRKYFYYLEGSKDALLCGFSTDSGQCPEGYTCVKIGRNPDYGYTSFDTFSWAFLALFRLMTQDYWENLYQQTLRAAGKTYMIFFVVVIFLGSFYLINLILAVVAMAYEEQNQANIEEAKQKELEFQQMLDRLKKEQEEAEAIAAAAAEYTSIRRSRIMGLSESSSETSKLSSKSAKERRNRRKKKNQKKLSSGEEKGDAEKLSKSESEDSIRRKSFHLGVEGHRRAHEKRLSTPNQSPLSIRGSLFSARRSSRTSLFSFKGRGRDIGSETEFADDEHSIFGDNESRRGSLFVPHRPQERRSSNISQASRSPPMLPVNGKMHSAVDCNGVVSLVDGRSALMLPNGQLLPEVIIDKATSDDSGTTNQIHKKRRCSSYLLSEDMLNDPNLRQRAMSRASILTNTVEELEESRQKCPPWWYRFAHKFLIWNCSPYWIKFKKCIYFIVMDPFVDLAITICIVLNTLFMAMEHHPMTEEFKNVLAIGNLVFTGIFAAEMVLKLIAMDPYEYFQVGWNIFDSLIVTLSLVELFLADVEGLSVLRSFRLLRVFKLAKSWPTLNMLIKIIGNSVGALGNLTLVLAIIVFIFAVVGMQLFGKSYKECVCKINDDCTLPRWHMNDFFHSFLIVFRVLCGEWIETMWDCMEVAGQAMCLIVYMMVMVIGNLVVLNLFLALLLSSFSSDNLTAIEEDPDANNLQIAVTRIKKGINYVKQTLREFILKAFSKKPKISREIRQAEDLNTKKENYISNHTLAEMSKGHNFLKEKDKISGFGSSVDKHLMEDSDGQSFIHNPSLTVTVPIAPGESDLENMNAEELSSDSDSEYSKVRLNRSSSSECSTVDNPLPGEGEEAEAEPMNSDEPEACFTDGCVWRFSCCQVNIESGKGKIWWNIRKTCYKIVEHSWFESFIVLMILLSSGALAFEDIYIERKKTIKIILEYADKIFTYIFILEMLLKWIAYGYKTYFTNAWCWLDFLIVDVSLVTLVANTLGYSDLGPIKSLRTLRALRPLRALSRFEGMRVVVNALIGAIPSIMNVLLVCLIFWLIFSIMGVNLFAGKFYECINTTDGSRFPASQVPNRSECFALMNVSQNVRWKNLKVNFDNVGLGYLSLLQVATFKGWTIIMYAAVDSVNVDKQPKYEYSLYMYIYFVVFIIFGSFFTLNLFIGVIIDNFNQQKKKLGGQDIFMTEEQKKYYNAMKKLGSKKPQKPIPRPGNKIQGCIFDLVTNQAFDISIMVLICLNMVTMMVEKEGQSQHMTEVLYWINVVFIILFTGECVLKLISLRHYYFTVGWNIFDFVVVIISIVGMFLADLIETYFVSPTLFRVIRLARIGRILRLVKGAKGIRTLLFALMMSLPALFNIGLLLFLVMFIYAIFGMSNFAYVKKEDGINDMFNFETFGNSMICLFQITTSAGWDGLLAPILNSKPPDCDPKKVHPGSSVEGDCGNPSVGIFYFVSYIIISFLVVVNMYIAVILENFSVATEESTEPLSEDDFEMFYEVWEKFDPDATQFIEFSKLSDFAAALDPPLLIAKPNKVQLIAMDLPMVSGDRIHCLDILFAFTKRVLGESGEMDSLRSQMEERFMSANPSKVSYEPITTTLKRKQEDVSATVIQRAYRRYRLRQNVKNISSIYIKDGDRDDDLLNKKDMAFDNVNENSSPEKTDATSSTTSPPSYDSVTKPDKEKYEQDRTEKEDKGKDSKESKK

Row | Compound | IC50 [nM]
1 | Cc1ccc(Cc2cc(Nc3ccc(S(=O)(=O)Nc4nccs4)c(F)c3)n(C(C)(C)C)n2)cc1 [Compound 157, 4-(1-tert-butyl-3-(4-methylbenzyl)-1H-pyrazol-5-ylamino)-2-fluoro-N-(thiazol-2-yl)benzenesulfonamide] | < 2000
2 | Cc1ccc(Cc2cc(Nc3ccc(S(=O)(=O)Nc4nccs4)cc3F)n(C(C)(C)C)n2)cc1 [Compound 158, 4-(1-tert-butyl-3-(4-methylbenzyl)-1H-pyrazol-5-ylamino)-3-fluoro-N-(thiazol-2-yl)benzenesulfonamide] | < 2000
3 | CC(C)(C)n1nc(Cc2cccc(Cl)c2)cc1Nc1ccc(S(=O)(=O)Nc2nccs2)c(F)c1 [Compound 164, 4-(1-tert-butyl-3-(3-chlorobenzyl)-1H-pyrazol-5-ylamino)-2-fluoro-N-(thiazol-2-yl)benzenesulfonamide] | < 2000
4 | Cc1ccc(Cc2cc(Nc3ccc(S(=O)(=O)Nc4nccs4)c(F)c3)[nH]n2)cc1 [Compound 165, 2-fluoro-4-(3-(4-methylbenzyl)-1H-pyrazol-5-ylamino)-N-(thiazol-2-yl)benzenesulfonamide] | < 2000
5 | Cc1ccc(Cc2cc(Nc3ccc(S(=O)(=O)Nc4nccs4)cc3F)[nH]n2)cc1 [Compound 167, 3-fluoro-4-(3-(4-methylbenzyl)-1H-pyrazol-5-ylamino)-N-(thiazol-2-yl)benzenesulfonamide] | < 2000
6 | O=S(=O)(Nc1nccs1)c1ccc(Nc2ccnn2-c2ccccc2)cc1F [Compound 168, 2-fluoro-4-(1-phenyl-1H-pyrazol-5-ylamino)-N-(thiazol-2-yl)benzenesulfonamide] | < 2000
7 | Cc1cc(Nc2ccc(S(=O)(=O)Nc3nccs3)c(F)c2)n(C2CCCC2)n1 [Compound 169, 4-(1-cyclopentyl-3-methyl-1H-pyrazol-5-ylamino)-2-fluoro-N-(thiazol-2-yl)benzenesulfonamide] | < 2000
8 | Cc1cc(Nc2ccc(S(=O)(=O)Nc3nccs3)c(F)c2)n(-c2ccc(C(F)(F)F)cc2)n1 [Compound 170, 2-fluoro-4-(3-methyl-1-(4-(trifluoromethyl)phenyl)-1H-pyrazol-5-ylamino)-N-(thiazol-2-yl)benzenesulfonamide] | < 2000
9 | O=S(=O)(Nc1nccs1)c1ccc(Nc2cnn(C(c3ccccc3)c3ccccc3)c2)cc1F [Compound 171, 4-(1-benzhydryl-1H-pyrazol-4-ylamino)-2-fluoro-N-(thiazol-2-yl)benzenesulfonamide] | < 2000
10 | O=S(=O)(Nc1nccs1)c1ccc(Nc2c3c(nn2-c2ccccc2)CCC3)cc1F [Compound 174, 2-fluoro-4-(2-phenyl-2,4,5,6-tetrahydrocyclopenta[c]pyrazol-3-ylamino)-N-(thiazol-2-yl)benzenesulfonamide] | < 2000
11 | Cc1cc(Nc2ccc(S(=O)(=O)Nc3nccs3)c(F)c2)n(C(C)C2CC2)n1 (stereo not drawn) [Compound 175, 4-(1-(1-cyclopropylethyl)-3-methyl-1H-pyrazol-5-ylamino)-2-fluoro-N-(thiazol-2-yl)benzenesulfonamide] | < 2000
12 | Cc1cc(Nc2ccc(S(=O)(=O)Nc3nccs3)c(F)c2)n(-c2ccccc2C(F)(F)F)n1 [Compound 179, 2-fluoro-4-(3-methyl-1-(2-(trifluoromethyl)phenyl)-1H-pyrazol-5-ylamino)-N-(thiazol-2-yl)benzenesulfonamide] | < 2000
13 | N#Cc1cn(-c2ccccc2)nc1Nc1ccc(S(=O)(=O)Nc2nccs2)c(F)c1 [Compound 180, 4-(4-cyano-1-phenyl-1H-pyrazol-3-ylamino)-2-fluoro-N-(thiazol-2-yl)benzenesulfonamide] | 2000 to 10000
14 | Cc1cc(Nc2ccc(S(=O)(=O)Nc3nccs3)c(F)c2)n(-c2ccc(F)cc2C(F)(F)F)n1 [Compound 187, 2-fluoro-4-(1-(4-fluoro-2-(trifluoromethyl)phenyl)-3-methyl-1H-pyrazol-5-ylamino)-N-(thiazol-2-yl)benzenesulfonamide] | < 2000
15 | Cc1cc(Nc2ccc(S(=O)(=O)Nc3nccs3)c(F)c2)n(-c2c(Cl)cccc2Cl)n1 [Compound 189, 4-(1-(2,6-dichlorophenyl)-3-methyl-1H-pyrazol-5-ylamino)-2-fluoro-N-(thiazol-2-yl)benzenesulfonamide] | < 2000
16 | Cc1cc(Nc2ccc(S(=O)(=O)Nc3nccs3)c(F)c2)n(C(C)(C)C)n1 [Compound 192, 4-(1-tert-butyl-3-methyl-1H-pyrazol-5-ylamino)-2-fluoro-N-(thiazol-2-yl)benzenesulfonamide] | 2000 to 10000
17 | CC(C)(C)n1nc(Cc2cccc(Cl)c2)cc1Nc1ccc(S(=O)(=O)Nc2nccs2)cc1 [Compound 194, 4-(1-tert-butyl-3-(3-chlorobenzyl)-1H-pyrazol-5-ylamino)-N-(thiazol-2-yl)benzenesulfonamide] | 2000 to 10000

The remaining lines, values ahead:

Row | IC50 [nM] | Compound
18 | < 2000 | Cc1ccc(Cc2cc(Nc3ccc(S(=O)(=O)Nc4nccs4)c(F)c3)n(C)n2)cc1 [Compound 159, 2-fluoro-4-(1-methyl-3-(4-methylbenzyl)-1H-pyrazol-5-ylamino)-N-(thiazol-2-yl)benzenesulfonamide]
19 | < 2000 | Cc1ccc(Cc2cc(Nc3ccc(S(=O)(=O)Nc4nccs4)cc3F)n(C)n2)cc1 [Compound 160, 3-fluoro-4-(1-methyl-3-(4-methylbenzyl)-1H-pyrazol-5-ylamino)-N-(thiazol-2-yl)benzenesulfonamide]
20 | 2000 to 10000 | Cc1cc(Nc2ccc(S(=O)(=O)Nc3ncc(Cl)s3)cc2)n(-c2ccccc2)n1 [Compound 163, N-(5-chlorothiazol-2-yl)-4-(3-methyl-1-phenyl-1H-pyrazol-5-ylamino)benzenesulfonamide]
21 | < 2000 | CC(C)(C)n1nc(Cc2ccc(Cl)c(F)c2)cc1Nc1ccc(S(=O)(=O)Nc2nccs2)c(F)c1 [Compound 166, 4-(1-tert-butyl-3-(4-chloro-3-fluorobenzyl)-1H-pyrazol-5-ylamino)-2-fluoro-N-(thiazol-2-yl)benzenesulfonamide]
22 | < 2000 | Cc1cccc(-n2nc(C)cc2Nc2ccc(S(=O)(=O)Nc3nccs3)c(F)c2)c1 [Compound 176, 2-fluoro-4-(3-methyl-1-m-tolyl-1H-pyrazol-5-ylamino)-N-(thiazol-2-yl)benzenesulfonamide]
23 | < 2000 | Cc1cc(Nc2ccc(S(=O)(=O)Nc3nccs3)c(F)c2)n(-c2cccc(F)c2)n1 [Compound 177, 2-fluoro-4-(1-(3-fluorophenyl)-3-methyl-1H-pyrazol-5-ylamino)-N-(thiazol-2-yl)benzenesulfonamide]
24 | < 2000 | Cc1cc(Nc2ccc(S(=O)(=O)Nc3nccs3)c(F)c2)n(-c2ccc(F)cc2)n1 [Compound 178, 2-fluoro-4-(1-(4-fluorophenyl)-3-methyl-1H-pyrazol-5-ylamino)-N-(thiazol-2-yl)benzenesulfonamide]
25 | < 2000 | Cc1cc(Nc2ccc(S(=O)(=O)Nc3nccs3)c(F)c2)n(-c2cccc(C(F)(F)F)c2)n1 [Compound 181, 2-fluoro-4-(3-methyl-1-(3-(trifluoromethyl)phenyl)-1H-pyrazol-5-ylamino)-N-(thiazol-2-yl)benzenesulfonamide]
26 | < 2000 | Cc1cc(Nc2ccc(S(=O)(=O)Nc3nccs3)c(F)c2)n(-c2cc(F)ccc2C)n1 [Compound 186, 2-fluoro-4-(1-(5-fluoro-2-methylphenyl)-3-methyl-1H-pyrazol-5-ylamino)-N-(thiazol-2-yl)benzenesulfonamide]
27 | < 2000 | Cc1cc(Nc2ccc(S(=O)(=O)Nc3nccs3)c(F)c2)n(-c2c(F)cccc2F)n1 [Compound 190, 4-(1-(2,6-difluorophenyl)-3-methyl-1H-pyrazol-5-ylamino)-2-fluoro-N-(thiazol-2-yl)benzenesulfonamide]
